Laboratory results reported in PubChem BioAssay (NCI).
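Cultured in 96-well plates, cells were exposed to test compound for 48 hours across five concentrations. Definition used: TGI = concentration required for complete inhibition of growth.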

Columns and labels:
Assay in all cases: growth of human tumour cells (NCI), 48 h
[1] = system: 786-0 renal
[2] = system: HL-60(TB) leukemia
[3] = system: TK-10 renal
[4] = system: NCI/ADR-RES ovarian
[5] = system: HOP-92 NSCLC
[6] = system: SK-OV-3 ovarian
[7] = system: MDA-N
[8] = system: COLO 205 colon
[9] = system: CAKI-1 renal
[10] = system: LOX IMVI melanoma
[11] = system: UO-31 renal
[12] = system: SK-MEL-28 melanoma
[13] = system: SK-MEL-5 melanoma
[14] = system: SNB-75 CNS
[15] = system: MOLT-4 leukemia
[16] = system: MDA-MB-435
[17] = system: NCI-H226 lung
[18] = system: MDA-MB-231 breast
[19] = system: IGROV1 ovarian
[20] = system: HT29 colon
[21] = system: SR leukemia
[22] = system: A549 NSCLC
[23] = system: UACC-62 melanoma
[24] = system: SF-539 CNS
[25] = system: HS 578T breast
[26] = system: NCI-H23 lung
[27] = system: NCI-H522 lung
[28] = system: ACHN renal
[29] = system: K-562 leukemia
[30] = system: SNB-19 CNS
[31] = system: OVCAR-5 ovarian
[32] = system: RXF 393 renal
[33] = system: M14 melanoma
[34] = system: RPMI-8226 leukemia
[35] = system: OVCAR-3 ovarian
[36] = system: UACC-257 melanoma
[37] = system: SN12C renal
[38] = system: HCT-116 colon
[39] = system: CCRF-CEM leukemia
[40] = system: HOP-62 NSCLC
[41] = system: EKVX NSCLC
[42] = system: MALME-3M melanoma
[43] = system: DU-145 prostate
[44] = system: SW-620 colon
[45] = system: SF-295 CNS
[46] = system: HCC-2998 colon
[47] = system: PC-3 prostate
[48] = system: KM12 colon
[49] = system: OVCAR-8 ovarian
[50] = system: SF-268 CNS
[51] = system: NCI-H460 lung
[52] = system: MCF7 breast
[53] = system: BT-549 breast
[54] = system: HCT-15 colon
[55] = system: OVCAR-4 ovarian
[56] = system: SK-MEL-2 melanoma
[57] = system: T-47D breast
[58] = system: U251 CNS
[59] = system: A498 renal

Measured: TGI

CCOC(=O)C(C)(C)/C=C\C(Cl)=C(Cl)Cl
> 100 µM: [1] | [2] | [3] | [4] | [5] | [6] | [7] | [8] | [9] | [10] | [11] | [12] | [13] | [14] | [15] | [16] | [17] | [18] | [19] | [20] | [21] | [22] | [23] | [24] | [25] | [26] | [27] | [28] | [29] | [30] | [31] | [32] | [33] | [34] | [35] | [36] | [37] | [38] | [39] | [40] | [41] | [42] | [43] | [44] | [45] | [46] | [47] | [48] | [49] | [50]

NCC(=O)N1CCN(c2nc(N3CCCC3)c3nc(Cl)c(NCc4ccccc4)nc3n2)CC1
3.16 µM: [14]
36.8 µM: [4]
19 µM: [17]
9.87 µM: [31]
3.19 µM: [8]
3.34 µM: [7] | [37]
3.58 µM: [24]
7.33 µM: [47]
3.06 µM: [11]
3.81 µM: [41]
3.59 µM: [51]
3.15 µM: [33]
3.63 µM: [26]
3.24 µM: [23] | [36]
6.82 µM: [43]
3.23 µM: [38]
3.67 µM: [54]
3.73 µM: [3] | [42]
3.54 µM: [6]
3.11 µM: [1]
6.4 µM: [9]
4.41 µM: [50]
3.03 µM: [57] | [46]
4.34 µM: [28]
3.74 µM: [53]
2.89 µM: [32]
3.42 µM: [56]
3.17 µM: [13]
4.79 µM: [55]
3.38 µM: [52]

CC1C(c2ccc3c(c2)OCO3)c2cc3c(cc2OC1N1CCCCC1)OCO3 (configuration not stated)
48.6 µM: [7]
79.9 µM: [9]
> 100 µM: [1] | [51] | [3] | [4] | [8] | [10] | [52] | [11] | [12] | [13] | [15] | [19] | [20] | [21] | [22] | [23] | [24] | [25] | [26] | [27] | [28] | [29] | [30] | [31] | [33] | [34] | [35] | [36] | [54] | [37] | [38] | [39] | [40] | [41] | [56] | [43] | [44] | [45] | [57] | [46] | [47] | [48] | [49] | [50]
62.8 µM: [16]

CC(=O)Nc1ccc2oc(=O)c3ccccc3c2c1
> 100 µM: [1] | [2] | [51] | [4] | [5] | [58] | [7] | [8] | [9] | [10] | [52] | [11] | [12] | [13] | [14] | [15] | [16] | [17] | [19] | [20] | [21] | [53] | [22] | [23] | [24] | [25] | [26] | [27] | [28] | [29] | [30] | [31] | [32] | [59] | [33] | [34] | [35] | [36] | [54] | [37] | [55] | [38] | [39] | [40] | [41] | [42] | [56] | [43] | [44] | [45] | [57] | [46] | [47] | [48] | [49] | [50]
